Data set [1] has as its system cells from the human adrenal cortex. Conditions: homogenate incubations, read-out: apparent Km-value; cited from earlier work.
In data set [2] the test system is adrenocortical carcinoma cells. Put plainly: Autoradiography of slices from a lymphnode metastasis of an aldosterone producing adrenocortical carcinoma. The data set is classed as cell-based, human. As to the method: Tissue from a lymphnode metastasis of an aldosterone producing adrenocortical carcinoma was obtained from a person.
(§1) Adrenal tissue was placed in ice-cold isotonic saline solution after removal and kept on ice until embedded in 3% agarose. Precision-cut slices (200 μm) were prepared in a Krumdieck tissue slicer (Alabama Research and Development, Munford, Ala., USA) in ice-cold PBS. Slices of roughly equal size were placed in culture medium on a titanium screen holder and incubated for 24 h (after a 1 h pre-incubation).
Microautoradiography: Slices were incubated with MeSO2-[^14C]DDE (2.6 μM, 35 nCi/ml) or o,p′-[^14C]DDD (3.8 μM, 60 nCi/ml) for 24 h. The labeled substances were added to the medium dissolved in DMSO. Following incubation, slices were fixed overnight in buffered formaldehyde (4%). The fixed slices were dehydrated, embedded in methacrylate, sectioned, and dipped in liquid NTB2 film emulsion, as described elsewhere (4). Autoradiograms were exposed (4° C.) for one year to enable localization of irreversible binding in metyrapone-treated slices. Autoradiograms were developed, stained, and examined as previously described (4).

Data set [3] has as its system adrenal slices. Put plainly: Steroid hormone secretion from adrenal slices into culture medium (HPLC). Conditions: 25 μM. The format is cell-based, human. As to the method: as §1
(§2) To inhibit CYP-dependent enzyme activity in the slices, incubation wells were supplemented with the CYP11B1 (11β-hydroxylase) inhibitor metyrapone (50 μM) when applicable. To stimulate ACTH-regulated enzyme activity in the slices, the synthetic ACTH-analogue tetracosactide (11 nM) was added. The labeled and unlabeled test substances (MeSO2-DDE and o,p′-DDD) were added to the fresh incubation medium, dissolved in DMSO (not exceeding 0.5% of the total volume). Control slices were cultured in medium containing DMSO only.
Cortisol, 11-deoxycortisol, corticosterone, 11-deoxycorticosterone, aldosterone, androstenedione and 17-OH-progesterone concentrations in the medium were measured with HPLC using UV detection (241 nm), as described previously (4). The steroid products were separated using a linear gradient of 18–80% acetonitrile (1 ml/min), obtained by diluting acetonitrile/tetrahydrofuran (90/10 vol %) with methanol/water (40/60 vol %), for 32 min. The amounts of steroids were expressed as nmol/slice. The detection level of cortisol/corticosterone was 5 pmol/ml medium. To adjust for differences in slice size, the steroids were expressed as a percentage of the amount of cortisol from the same slice.

The test system of data set [4] is normal adrenal slices. Put plainly: Phosphorautoradiography, semi-quantification of tissue-bound radioactivity in normal adrenal slices. The format is cell-based, human. Conditions: for inhibition of irreversible binding in zona fasciculata/reticularis in metyrapone-exposed slices: metyrapone 50 μM, 24 h of exposure, compared with slices without metyrapone; for amount of tissue-bound radioactivity, MeSO2-[14C]DDE- versus o,p′-[14C]DDD-exposed slices: normal human adrenal slices, phosphorautoradiography. As to the method: Normal adrenal tissue, cortex as well as apparently unaffected medulla, was obtained from a […] MEN 2 patient operated on for an ipsilateral pheochromocytoma. Another normal adrenal was obtained from a patient operated on for a renal carcinoma. Adrenal tissue was placed in ice-cold isotonic saline solution after removal and kept on ice until embedded in 3% agarose. Precision-cut slices (200 μm) were prepared in a Krumdieck tissue slicer (Alabama Research and Development, Munford, Ala., USA) in ice-cold PBS. Slices of roughly equal size were placed in culture medium on a titanium screen holder and incubated for 24 h (after a 1 h pre-incubation). To inhibit CYP-dependent enzyme activity in the slices, incubation wells were supplemented with the CYP11B1 (11β-hydroxylase) inhibitor metyrapone (50 μM) when applicable. To stimulate ACTH-regulated enzyme activity in the slices, the synthetic ACTH-analogue tetracosactide (11 nM) was added. The labeled and unlabeled test substances (MeSO2-DDE and o,p'-DDD) were added to the fresh incubation medium, dissolved in DMSO (not exceeding 0.5% of the total volume). Control slices were cultured in medium containing DMSO only. Phosphorautoradiography: […] The radioactivity in the labeled areas of the adrenal sections was recorded by reading the imaging plate in a Phosphoimager (BAS 1500, Fuji, Japan). For semi-quantification of the tissue-bound radioactivity, a Windows-based bio-imaging analyzer program (ImageGauge, version 3.122, Fujifilm, Japan) was used. […] The values were adjusted according to the difference in specific activity of the two compounds. In order to check the imaging plates with respect to exposure linearity, the same plate was repeatedly exposed to the same sections for 7, 14, 28, 49 and 122 days, reading and erasing the plate between each exposure. […] Intra-exposure variation was measured on three adjacent sections on the same glass-slide.

Data set [5] deals with normal adrenal slices. Put plainly: Microautoradiography of irreversible binding in precision-cut normal adrenal slice culture. The data set is classed as cell-based. Conditions: normal human adrenal slices, 24 h; MeSO2-[14C]DDE 2.6 μM, o,p′-[14C]DDD 3.8 μM. Here is the method: Normal adrenal tissue, cortex as well as apparently unaffected medulla, was obtained from a […] MEN 2 patient operated on for an ipsilateral pheochromocytoma. Another normal adrenal was obtained from a patient operated on for a renal carcinoma.
as §1, §2
Microautoradiography: Slices were incubated with MeSO2-[^14C]DDE (2.6 μM, 35 nCi/ml) or o,p′-[^14C]DDD (3.8 μM, 60 nCi/ml) for 24 h. The labeled substances were added to the medium dissolved in DMSO. […]

Data set [6] concerns bilateral non-functioning adrenocortical hyperplasia. The data set is described as follows: Bound radioactivity in slices from a bilateral non-functioning adrenocortical hyperplasia. The format is cell-based, human. Here is the method: Tissue from a bilateral non-functioning adrenocortical hyperplasia was obtained from a person.
as §1
To inhibit CYP-dependent enzyme activity in the slices, incubation wells were supplemented with the CYP11B1 (11β-hydroxylase) inhibitor metyrapone (50 μM) when applicable. […]
Phosphorautoradiography: Semi-quantification of tissue-bound radioactivity was accomplished by apposing tissue sections to imaging plates (BAS-IP MP 2040S Fuji, Japan) for 49 days. The radioactivity in the labeled areas of the adrenal sections was recorded by reading the imaging plate in a Phosphoimager (BAS 1500, Fuji, Japan). For semi-quantification of the tissue-bound radioactivity, a Windows-based bio-imaging analyzer program (ImageGauge, version 3.122, Fujifilm, Japan) was used.
In order to correlate tissue-bound radioactivity and metabolically active regions in the incubated slices, the labeled areas of the images were marked selectively at 1 pixel resolution (1 pixel=100 μm). […]

Data set [7] deals with rat adrenal slices. The settings on record: ex vivo slice culture; cited from earlier work.
Data set [8] concerns the target T1, CYP 11B1 (Homo sapiens, UniProt P15538).
T1 sequence (P15538 25-503): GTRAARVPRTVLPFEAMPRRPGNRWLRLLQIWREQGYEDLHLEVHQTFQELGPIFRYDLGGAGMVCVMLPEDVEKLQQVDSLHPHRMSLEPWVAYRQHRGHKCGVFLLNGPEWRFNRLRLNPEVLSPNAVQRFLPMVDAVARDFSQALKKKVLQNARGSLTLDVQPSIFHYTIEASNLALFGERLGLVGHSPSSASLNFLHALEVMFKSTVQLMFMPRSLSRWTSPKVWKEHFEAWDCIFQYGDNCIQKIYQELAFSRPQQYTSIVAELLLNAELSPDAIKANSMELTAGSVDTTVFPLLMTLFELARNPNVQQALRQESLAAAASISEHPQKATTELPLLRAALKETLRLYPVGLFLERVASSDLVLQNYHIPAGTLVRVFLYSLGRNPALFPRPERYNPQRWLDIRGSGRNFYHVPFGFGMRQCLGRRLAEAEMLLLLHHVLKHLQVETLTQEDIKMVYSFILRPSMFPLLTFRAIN
The arrangement: endogenous in cells; host or cells: H295R human adrenocortical carcinoma cell line. The settings on record: 10 μM; H295R cells; cited from earlier work.

In data set [9] the test system is mouse adrenal slices. The settings on record: cited from earlier work; for irreversible binding in mouse adrenal cortex slices: ex vivo slice culture.
Data set [10] deals with mouse adrenal zona fasciculata cells. The settings on record: cited from earlier work.
The target of data set [11] is T1, CYP 11B1. The arrangement: expressed in transfected cells; host or cells: V79 hamster cells. The settings on record: 5 μM; V79 hamster cells transfected with human CYP11B1 DNA; cited from earlier work.
Data set [12] has as its system adrenocortical carcinoma. Conditions: cited from earlier work.

“And” between values parts separate entries of the source, which are not always exact repeats. Identical values can stand only once. “Also recorded” adds a separate entry of the source. Like-named read-outs stand apart in the source and are kept apart here.

Broadly, the Km is the concentration of substrate that gives half-maximal velocity.

Consider `CS(=O)(=O)c1cc(C(=C(Cl)Cl)c2ccc(Cl)cc2)ccc1Cl` [MeSO2-DDE, 1-(4-Chloro-3-methylsulphonylphenyl)-1-(4-chlorophenyl)-2,2-dichloroethene], for which the Km in data set [1] was 1.4 µM. Also, in data set [2], the “binding to adrenocortical carcinoma cells” value is recorded as “irreversibly bound”. The “binding to adrenocortical carcinoma cells” value in [2] (listed as MeSO2-[^14C]DDE) is “selective binding”. For the same compound, in data set [3], the “11-deoxycortisol in the culture medium” value is reported as “detectable only in the culture medium of MeSO2-DDE-exposed slices”; the “cortisol or corticosterone secretion compared with control slices” value is “no significant difference”; the “effect on steroid secretion compared with control” value was “increased accumulation of 11-deoxycorticosterone, 11-deoxycortisol and androstenedione”. Further, the “11-deoxycorticosterone secretion to the medium” value in data set [3] (compared with o,p′-DDD exposed slices and control slices) is on record as “significant increase”. Also, the androstenedione secretion result in data set [3] (compared with o,p′-DDD-exposed slices) is given as “increased”. In addition, in [4], the “inhibition of irreversible binding in zona fasciculata/reticularis in metyrapone-exposed slices” value is given as “below the detection limit” and the “amount of tissue-bound radioactivity, MeSO2-[14C]DDE- versus o,p′-[14C]DDD-exposed slices” value was “no significant difference”. In addition, the “labeling of adrenal zones in autoradiograms (irreversible binding)” value in data set [5] is “high and selective labeling of zona fasciculata and zona reticularis; also recorded: confined to both zona fasciculata and zona reticularis”. The “irreversible binding in nonfunctional adrenocortical hyperplasia” value in data set [6] is “irreversibly bound”. Moreover, the “irreversible binding in rat adrenal slices” value in data set [7] is “very weak binding”. Further, the “effect on CYP 11B1 enzyme activity” value in data set [8] is on record as “inhibit CYP 11B1 enzyme activity”. Moreover, in data set [9], the “irreversible binding in mouse adrenal cortex slices” value is reported as “strong irreversible binding”. The plasma corticosterone levels result in [10] (mice, following exposure) is “reduced plasma corticosterone levels”. In data set [10] (mouse adrenal zona fasciculata cells), the “irreversible binding to cellular macromolecules in vivo” value was “cell-specific irreversible binding”.
With `CC(C)(C(=O)c1cccnc1)c1cccnc1` [metyrapone], the “block of synthesis of cortisol from 11-deoxycortisol” value in data set [11] is recorded as 86%. Further, in data set [9] (mouse adrenal slice culture and mouse adrenal homogenate), the “effect of metyrapone on irreversible MeSO2-[14C]DDE-binding and corticosterone secretion” value was “inhibits”. For the same compound, the “effect of metyrapone on irreversible protein binding and toxicity of MeSO2-DDE in the adrenal zona fasciculata” value in data set [10] (mouse, in vivo) is “effectively blocked”.
Turning to `Clc1ccc(C(c2ccccc2Cl)C(Cl)Cl)cc1` (stereo not drawn) [o,p′-DDD, 1-(2-chlorophenyl)-1-(4-chlorophenyl)-2,2-dichloroethane], in [1], the Km is 24 µM. Besides, in data set [2], the “binding to adrenocortical carcinoma cells” value is “selective binding”. In addition, in data set [3], the “cortisol or corticosterone secretion compared with control slices” value is listed as “no significant difference” and the “effect on steroid secretion compared with control” value was “did not produce any visible effect”. In [4], the “inhibition of irreversible binding in zona fasciculata/reticularis in metyrapone-exposed slices” value was determined as 32% and the “amount of tissue-bound radioactivity, MeSO2-[14C]DDE- versus o,p′-[14C]DDD-exposed slices” value is recorded as “no significant difference”. Also, in [5], the “labeling of adrenal zones in autoradiograms (irreversible binding)” value is “high and selective labeling of zona fasciculata and zona reticularis; also recorded: localized in a similar way”. In data set [7], the “irreversible binding in rat adrenal slices” value is listed as “negligable irreversible binding”. Moreover, the “patients not cured by surgery who responded to treatment” value in data set [12] (adrenocortical carcinoma patients) was 194 out of 551. In addition, the side effects result in data set [12] (patients, therapeutic doses) is “dose-dependent side effects in the gastrointestinal tract (nausea, vomiting and diarrhea) and CNS (dizziness and headaches)”. Also, the “therapeutically insufficient plasma concentrations” value in data set [12] (patients) is “below 10 μg/ml and < 31 μM”. Moreover, the “irreversible binding in mouse adrenal cortex slices” value in data set [9] is given as “negligable irreversible binding”. The “irreversible binding in mouse adrenal cortex slices” value in data set [9] (listed as o,p′-[^14C]DDD) is recorded as “very weak”.

These data come from patent US7091248B2, “Treatment of adrenocortical hypersecretion and tumor growth” (priority 2001, dated 2006).
